Results: US20110200535A1, “DAA-PYRIDINE AS PERIPHERAL BENZODIAZEPINE RECEPTOR LIGAND FOR DIAGNOSTIC IMAGING AND PHARMACEUTICAL TREATMENT” (BAYER SCHERING PHARMA AKTIENGESELLSCHAFT, priority 2008, published 2011)

Experiments:
[1] = target: CBR (central diazepine receptor); assay: CBR binding, [^3H]-Flumazenil
PBR = PBR (Homo sapiens, UniProt P30536); assay: PBR binding, [^3H]-PK11195
[2] = target: T1, peripheral benzodiazepine receptor (PBR) (Rattus norvegicus, UniProt P16257); assay: Ex vivo autoradiography of brain sections, rat kainic acid induced epilepsy model; type: in vivo; conditions: rat kainic acid model, 30 min ex vivo autoradiography
T1 construct: from tissue; host or cells: rat brain (hippocampus, cerebellum) after i.v. tracer injection
Experimental: Using a rat kainic acid induced epilepsy model and respective sham controls the accumulation of [^18F]-2d and [^18F]-5d was visualized ex vivo. In brief, epilepsy was induced in rats by injecting kainic acid i.p. At day eight after the start of the kainic acid treatment [^18F]-2d and [^18F]-5d were injected into the tail vein of the rats and their sham treated controls (PBS instead of kainic acid) at a dose of 25.8-35.8 MBq (approximately 1.0 μg) per rat. Thirty minutes after intravenous injection the rats were sacrificed, the brains were taken out, snap frozen and sliced transversally in a cryostat. The slices were exposed to PhosphoImager plates over night. The resulting autoradiographic signals were analyzed qualitatively and quantitatively (FIG. 2.1 A and C, 2.2 A and C). […] To determine the specificity of the [^18F]-2d and [^18F]-5d binding, kainic acid treated rats were co-injected with [^19F]-2e and [^19F]-5e, respectively.
The autoradiographic signals were quantified. The signal intensity in a hippocampal region of interest (ROI) was measured and compared to a ROI in the cerebellum, that was used as reference region.

[3] = cited from earlier work

Chain of PBR (P30536 whole entry, species assumed): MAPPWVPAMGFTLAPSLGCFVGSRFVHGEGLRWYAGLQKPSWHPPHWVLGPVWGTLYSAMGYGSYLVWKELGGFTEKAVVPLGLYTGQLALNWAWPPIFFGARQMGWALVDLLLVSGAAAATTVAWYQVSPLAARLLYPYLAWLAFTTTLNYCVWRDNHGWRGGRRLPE

Ki [1] [nM] | Ki (PBR) [nM] | Hipp/Cereb ratio (signal-to-background ratio, hippocampus/cerebellum) [2] | SMILES | Brain uptake, standard uptake value (SUV), washout ([3]; after 60 min) | Brain uptake, standard uptake value (SUV) ([3]; at 5 min)
> 20000 | 2.57 ± 0.06 | 5.6±1.8 | COc1ccc(OCCF)c(CN(C(C)=O)c2cccnc2Oc2cccc(C)c2C)c1 [[^19F]-5e, N-[2-(2,3-dimethylphenoxy)pyridin-3-yl]-N-[2-(2-fluoroethoxy)-5-methoxybenzyl]acetamide] | – | –
– | – | – | CC(=O)N(Cc1ccccc1OCC[18F])c1cnccc1Oc1ccccc1 [[^18F]-FEPPA] | 0.35 | 0.6
> 20000 | 1.46 ± 0.12 | – | CCN(CC)C(=O)Cc1c(-c2ccc(OCCF)cc2)nn2c(C)cc(C)nc12 [[^19F]-DPA-714, reference compound] | – | –
